Source: US10588316B2 (priority 2015, dated 2020)
Values joined by “and” are separate entries in the source; they are usually repeats but may differ in a detail not shown here. Equal values may be shown once.

Assays:
Parameters in all cases: species or system wheat
Conditions in all cases: in vivo
DON toxin [1] = tested on: DON toxin
[2] = tested on: toxin synthesis capability of thalli
DON toxin [3] = tested on: DON toxin; remark: listed apart in the source
DON toxin [4] = tested on: DON toxin; remark: listed apart in the source
DON toxin [5] = tested on: DON toxin; remark: listed apart in the source
DON toxin [6] = tested on: DON toxin; remark: listed apart in the source

| Compound | DON Reduction Percentage (DON toxin [1]) [%] | DON Synthesis Capability [2] | Grain Toxin Content mg of DON/kg of grain (DON toxin [3]) | Toxin Reduction Percentage % (DON toxin [3]) | Grain Toxin Content (mg of DON/Kg of grain) (DON toxin [4]) | Rate of Decrease in Toxin Content in Grains (%) (DON toxin [4]) | toxin contamination level of grains (DON toxin [5]) | Grain Toxin Content (DON toxin [6]) |
| --- | --- | --- | --- | --- | --- | --- | --- | --- |
| COC(=O)Nc1nc2ccccc2[nH]1 [Carbendazim, carbendazim] | 55.00 | 28.94 | 2.95 mg of DON/kg of grain | 34.73% | 4.35 | 32.7 | 4.4 mg/kg of grains | – |
| OCC1=CC(N[C@H]2C[C@H](CO)[C@@H](OC3O[C@H](CO)[C@@H](O)[C@H](O)[C@H]3O)C(O)[C@H]2O)[C@H](O)[C@@H](O)C1O (stereo partly shown) [Jinggangmycin, jinggangmycin A] | – | – | 2.86 mg of DON/kg of grain and 3.82 mg of DON/kg of grain and 4.02 mg of DON/kg of grain and 4.14 mg of DON/kg of grain | – | – | – | – | 2.89 μg/g of kernels and 3.24 μg/g of kernels and 3.86 μg/g of kernels and 4.2 μg/g of kernels and 4.77 μg/g of kernels |
| Tebuconazole | – | 19.88 and 18.35 and 18.95 and 19.02 and 19.41 | 1.89 mg of DON/kg of grain and 2.14 mg of DON/kg of grain and 2.4 mg of DON/kg of grain and 2.8 mg of DON/kg of grain | 58.19% and 52.65% and 46.90% and 38.05% | – | – | – | 4.02 μg/g of kernels and 3.29 μg/g of kernels and 2.14 μg/g of kernels and 2.08 μg/g of kernels |
